Patent US20060035920A1, “Chk-1 inhibitors” (Millennium Pharmaceuticals, Inc., priority 2004, published 2006)

Target: T1, Recombinant human Chk1 (GST-Chk1) (Homo sapiens, UniProt O14757)
T1 construct: made in house; host or cells: insect cells (baculovirus, Bac-to-Bac system)
T1 sequence (O14757 1-476): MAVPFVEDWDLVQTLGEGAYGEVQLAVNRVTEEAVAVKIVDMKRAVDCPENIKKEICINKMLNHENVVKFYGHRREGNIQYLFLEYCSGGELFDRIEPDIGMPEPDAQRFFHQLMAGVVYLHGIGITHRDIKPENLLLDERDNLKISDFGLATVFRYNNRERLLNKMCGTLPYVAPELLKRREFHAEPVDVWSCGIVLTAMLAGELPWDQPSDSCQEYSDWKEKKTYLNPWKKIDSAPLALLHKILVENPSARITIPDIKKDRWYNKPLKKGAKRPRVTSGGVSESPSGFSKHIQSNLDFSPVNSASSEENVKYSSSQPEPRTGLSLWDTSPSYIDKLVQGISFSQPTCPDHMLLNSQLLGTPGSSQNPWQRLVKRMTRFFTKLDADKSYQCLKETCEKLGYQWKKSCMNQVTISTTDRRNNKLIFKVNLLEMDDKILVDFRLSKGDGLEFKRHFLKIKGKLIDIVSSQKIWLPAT
Assay: Chk1 DELFIA Kinase Assay
Format: biochemical
Description: Recombinant human Chk1 was expressed as a fusion protein with glutathione S-transferase at the amino-terminus (GST-Chk1) using standard baculovirus vectors and (Bac-to-Bac®) insect cell expression system purchased from GIBCO™ Invitrogen. Recombinant protein expressed in insect cells was purified using glutathione sepharose (Amersham Biotech) using standard procedures described by the manufacturer.
Chk1 DELFIA® Kinase Assay:
Assays (25 μL) utilized 2 nM GST-Chk1 containing 10 mM Tris, pH 7.5, 20% glycerol, 50 mM sodium chloride (NaCl), 0.01% Surfact-Amps® 20, 1 μM peptide stubstrate (Biotin-GLYRSPSMPEN-amide) (SEQ ID NO: 2), 01.% BSA, 2 mM DTT, 4% DMSO, 600 μM ATP, 10 mM MgCl2 and reacted for 50 minutes at room temperature. Reactions were terminated with 100 μL of Stop buffer containing 1% BSA, 10 mM Tris, pH 8.0, 150 mM NaCl, 100 mM EDTA. Stopped reactions (100 μL) were transferred to 96 well NeutrAvidin plates (Pierce) to capture the biotin-peptide substrate during a 30 minute room temperature incubation. Wells were washed and reacted with 100 μL PerkinElmer Wallac Assay Buffer containing 21.5 ng/ml anti-phospho-Ser216-Cdc25c rabbit polyclonal antibody from Cell Signaling Technology (Beverly, Mass.) and 292 ng/ml europium labeled anti-rabbit-IgG for 1 hour at room temperature. Wells were washed and europium released from the bound antibody by addition of Enhancement Solution (100 μL) (PerkinElmer Wallac) and detected using a Perkin Elmer Wallac Envison™ 2100 multilabel reader using standard manufacturer settings.

[1] = GST-Chk1 kinase assay, bound given in nM
[2] = GST-Chk1 in vitro kinase assay, bound given in μM

| IC50 [1] [nM] | IC50 [2] [nM] | Structure (SMILES) |
| --- | --- | --- |
| < 500 | – | Cc1[nH]nc2c1c(=O)n(CCCO)c1ccc(C#CCN3CCCC3)cc21 [Compound I-18, 5-(3-hydroxypropyl)-3-methyl-8-(3-pyrrolidin-1-ylprop-1-yn-1-yl)-2,5-dihydro-4H-pyrazolo[4,3-c]quinolin-4-one] |
| < 500 | – | Cc1[nH]nc2c1c(=O)n(C)c1ccc(C#CCN3CCCC3)cc21 [Compound I-12, 3,5-dimethyl-8-(3-pyrrolidin-1-ylprop-1-yn-1-yl)-2,5-dihydro-4H-pyrazolo[4,3-c]quinolin-4-one] |
| < 500 | – | CCn1c(=O)c2c(C)[nH]nc2c2cc(-c3ccc(CN4CCCC4)o3)ccc21 [Compound I-55, 5-ethyl-3-methyl-8-[5-(pyrrolidin-1-ylmethyl)-2-furyl]-2,5-dihydro-4H-pyrazolo[4,3-c]quinolin-4-one] |
| < 500 | – | CCn1c(=O)c2c(C)[nH]nc2c2cc(C#CCN(C(C)C)C(C)C)ccc21 [Compound I-36, 8-[3-(diisopropylamino)prop-1-yn-1-yl]-5-ethyl-3-methyl-2,5-dihydro-4H-pyrazolo[4,3-c]quinolin-4-one] |
| < 500 | – | Cc1[nH]nc2c1c(=O)n(C)c1ccc(C#CCO)cc21 [Compound I-24, 8-(3-hydroxyprop-1-yn-1-yl)-3,5-dimethyl-2,5-dihydro-4H-pyrazolo[4,3-c]quinolin-4-one] |
| > 500 | < 1000 | CCn1c(=O)c2c(C)[nH]nc2c2cc(CCCN3CCCC3)ccc21 [Compound I-54, 5-ethyl-3-methyl-8-(3-pyrrolidin-1-ylpropyl)-2,5-dihydro-4H-pyrazolo[4,3-c]quinolin-4-one] |
| < 500 | – | CCn1c(=O)c2c(C)[nH]nc2c2cc(C#CCN3[C@H](C)CC[C@@H]3C)ccc21 [Compound I-3, 8-{3-[(2R,5S)-2,5-dimethylpyrrolidin-1-yl]prop-1-yn-1-yl}-5-ethyl-3-methyl-2,5-dihydro-4H-pyrazolo[4,3-c]quinolin-4-one] |
| < 500 | – | Cc1[nH]nc2c1c(=O)n(CC(F)F)c1ccc(C#CCN3CCCC3)cc21 [Compound I-4, 5-(2,2-difluoroethyl)-3-methyl-8-(3-pyrrolidin-1-ylprop-1-yn-1-yl)-2,5-dihydro-4H-pyrazolo[4,3-c]quinolin-4-one] |
| < 500 | – | Cc1[nH]nc2c1c(=O)n(CC1CC1)c1ccc(C#CCN3CCCC3)cc21 [Compound I-6, 5-(cyclopropylmethyl)-3-methyl-8-(3-pyrrolidin-1-ylprop-1-yn-1-yl)-2,5-dihydro-4H-pyrazolo[4,3-c]quinolin-4-one] |
| < 500 | – | COCCn1c(=O)c2c(C)[nH]nc2c2cc(C#CCN3CCCC3)ccc21 [Compound I-5, 5-(2-methoxyethyl)-3-methyl-8-(3-pyrrolidin-1-ylprop-1-yn-1-yl)-2,5-dihydro-4H-pyrazolo[4,3-c]quinolin-4-one] |
| < 500 | – | CCN(CC)Cc1ccc(-c2ccc3c(c2)c2n[nH]c(C)c2c(=O)n3CC)s1 [Compound I-46, 8-{5-[(diethylamino)methyl]-2-thienyl}-5-ethyl-3-methyl-2,5-dihydro-4H-pyrazolo[4,3-c]quinolin-4-one] |
| < 500 | – | CCn1c(=O)c2c(C)[nH]nc2c2cc(C#CCN(C(C)C)C(C)(C)C)ccc21 [Compound I-38, 8-{3-[tert-butyl(isopropyl)amino]prop-1-yn-1-yl}-5-ethyl-3-methyl-2,5-dihydro-4H-pyrazolo[4,3-c]quinolin-4-one] |
| < 500 | – | CCN(CC)CC#Cc1ccc2c(c1)c1n[nH]c(C)c1c(=O)n2CC [Compound I-1, 8-[3-(diethylamino)prop-1-yn-1-yl]-5-ethyl-3-methyl-2,5-dihydro-4H-pyrazolo[4,3-c]quinolin-4-one] |
| < 500 | – | CCn1c(=O)c2c(C)[nH]nc2c2cc(C#CCN3CCOCC3)ccc21 [Compound I-7, 5-ethyl-3-methyl-8-(3-morpholin-4-ylprop-1-yn-1-yl)-2,5-dihydro-4H-pyrazolo[4,3-c]quinolin-4-one] |
| < 500 | – | Cc1[nH]nc2c1c(=O)n(CCO)c1ccc(C#CCN3CCCC3)cc21 [Compound I-17, 5-(2-hydroxyethyl)-3-methyl-8-(3-pyrrolidin-1-ylprop-1-yn-1-yl)-2,5-dihydro-4H-pyrazolo[4,3-c]quinolin-4-one] |
| < 500 | – | C#Cc1ccc2c(c1)c1n[nH]c(C)c1c(=O)n2C [Compound I-22, 8-ethynyl-3,5-dimethyl-2,5-dihydro-4H-pyrazolo[4,3-c]quinolin-4-one] |
| < 500 | – | CCn1c(=O)c2c(C)[nH]nc2c2cc(/C=C/CN3[C@H](C)CC[C@@H]3C)ccc21 [Compound I-41, 8-{(1E)-3-[(2R,5S)-2,5-dimethylpyrrolidin-1-yl]prop-1-en-1-yl}-5-ethyl-3-methyl-2,5-dihydro-4H-pyrazolo[4,3-c]quinolin-4-one] |
| < 500 | – | CCn1c(=O)c2c(C)[nH]nc2c2cc(C#CC(C)(C)NC(C)(C)C)ccc21 [Compound I-39, 8-[3-(tert-butylamino)-3-methylbut-1-yn-1-yl]-5-ethyl-3-methyl-2,5-dihydro-4H-pyrazolo[4,3-c]quinolin-4-one] |
| > 500 | < 1000 | CCn1c(=O)c2c(C)[nH]nc2c2ccc(CCCN3CCCC3)cc21 [Compound I-42, 5-ethyl-3-methyl-7-(3-pyrrolidin-1-ylpropyl)-2,5-dihydro-4H-pyrazolo[4,3-c]quinolin-4-one] |
| < 500 | – | CCn1c(=O)c2c(C)[nH]nc2c2cc(-c3ccc(CN4CC[C@H](O)C4)s3)ccc21 [Compound I-83, 5-ethyl-8-(5-{[(3S)-3-hydroxypyrrolidin-1-yl]methyl}-2-thienyl)-3-methyl-2,5-dihydro-4H-pyrazolo[4,3-c]quinolin-4-one] |
| < 500 | – | Cc1[nH]nc2c1c(=O)n(CC(C)C)c1ccc(C#CCN3CCCC3)cc21 [Compound I-16, 5-isobutyl-3-methyl-8-(3-pyrrolidin-1-ylprop-1-yn-1-yl)-2,5-dihydro-4H-pyrazolo[4,3-c]quinolin-4-one] |
| < 500 | – | CCn1c(=O)c2c(C)[nH]nc2c2cc(C#CCN3CCC(F)(F)C3)ccc21 [Compound I-30, 8-[3-(3,3-difluoropyrrolidin-1-yl)prop-1-yn-1-yl]-5-ethyl-3-methyl-2,5-dihydro-4H-pyrazolo[4,3-c]quinolin-4-one] |
| < 500 | – | CCn1c(=O)c2c(C)[nH]nc2c2cc(-c3ccc(CN(C)C)s3)ccc21 [Compound I-50, 8-{5-[(dimethylamino)methyl]-2-thienyl}-5-ethyl-3-methyl-2,5-dihydro-4H-pyrazolo[4,3-c]quinolin-4-one] |
| < 500 | – | Cc1[nH]nc2c1c(=O)n(CCF)c1ccc(C#CCN3CCCC3)cc21 [Compound I-10, 5-(2-fluoroethyl)-3-methyl-8-(3-pyrrolidin-1-ylprop-1-yn-1-yl)-2,5-dihydro-4H-pyrazolo[4,3-c]quinolin-4-one] |
| < 500 | – | CCn1c(=O)c2c(C)[nH]nc2c2cc(/C=C/CN3[C@@H](C)CC[C@@H]3C)ccc21 (racemic) [Compound I-40, 8-{(1E)-3-[(2S,5S)-2,5-dimethylpyrrolidin-1-yl]prop-1-en-1-yl}-5-ethyl-3-methyl-2,5-dihydro-4H-pyrazolo[4,3-c]quinolin-4-one] |
| < 500 | – | CCN(CC)C/C=C/c1ccc2c(c1)c1n[nH]c(C)c1c(=O)n2CC [Compound I-43, 8-[(1E)-3-(diethylamino)prop-1-en-1-yl]-5-ethyl-3-methyl-2,5-dihydro-4H-pyrazolo[4,3-c]quinolin-4-one] |
| > 500 | < 1000 | CCn1c(=O)c2c(C)[nH]nc2c2cc(-c3cnn(C)c3)ccc21 [Compound I-51, 5-ethyl-3-methyl-8-(1-methyl-1H-pyrazol-4-yl)-2,5-dihydro-4H-pyrazolo[4,3-c]quinolin-4-one] |
| > 500 | < 1000 | CCn1c(=O)c2c(C)[nH]nc2c2cc(-c3ccc(CN4CCc5ccccc5C4)s3)ccc21 [Compound I-48, 8-[5-(3,4-dihydroisoquinolin-2(1H)-ylmethyl)-2-thienyl]-5-ethyl-3-methyl-2,5-dihydro-4H-pyrazolo[4,3-c]quinolin-4-one] |
| < 500 | – | CCn1c(=O)c2c(C)[nH]nc2c2cc(C#CCN3CCCC3)ccc21 [Compound I-21, 5-ethyl-3-methyl-8-(3-pyrrolidin-1-ylprop-1-yn-1-yl)-2,5-dihydro-4H-pyrazolo[4,3-c]quinolin-4-one] |
